Assay results from US10047105B2, “Gyrase inhibitors” (Merck Sharp & Dohme Corp., priority 2009, dated 2018).
Converted amounts (≈) assume the structure as drawn.

What was measured:
S. aureus ATCC 13709 = assay: MIC, antibacterial potency, S. aureus; assay type: cell-based
S. pneumoniae ATCC 51916 = assay: MIC, S. pneumoniae; assay type: cell-based
[1] = S. pneumoniae (Spn52), in µg/mL

SMILES | MIC, SA (S. aureus ATCC 13709; S. aureus) [µg/mL] | MIC Spn52 (S. pneumoniae ATCC 51916; S. pneumoniae) [µg/mL] | MIC, SA (S. aureus ATCC 13709; S. aureus (SA), in µg/mL) | MIC Spn52 (S. pneumoniae ATCC 51916; [1])
CCc1[nH]c2nc(Cc3cccnc3)nc(N3CC(NC(=O)OC(C)(C)C)C3)c2c1Cl [700,461] | 1 (≈ 2.26 µM) | > 64 |  | 
CCc1[nH]c2nc(Sc3cccnc3)nc(NCCNc3ccc(C(=O)O)cn3)c2c1C=O [700,287] | > 64 | > 64 |  | 
CCOc1nc(Sc2ncc3cccnc3n2)nc2[nH]c(CC)c(Cl)c12 [700,341] | > 64 | > 64 |  | 
CCc1[nH]c2nc(Sc3cc(=O)n(C)c(=O)[nH]3)nc(N3CC4CNC4C3)c2c1Cl.O=C(O)C(F)(F)F (stereo not drawn) [700,628] | 2 | 8 |  | 
CCOC(=O)Cn1c(=O)cc(Sc2nc(N3CC(O)C3)c3c(Br)c(CC)[nH]c3n2)[nH]c1=O [700,386, Ethyl 2-(4-(5-bromo-6-ethyl-4-(3-hydroxyazetidin-1-yl)-7H-pyrrolo[2,3-d]pyrimidin-2-ylthio)-2,6-dioxo-2,3-dihydropyrimidin-1 (6H)-yl)acetate] | ≤ 0.5 | 8 (≈ 15.2 µM) |  | 
CCc1[nH]c2nc(Oc3cncc(C#N)c3)nc(Oc3ccc(OC)c(OC)c3)c2c1Cl [700,813] |  |  | >64 | >64
CCc1[nH]c2nc(Sc3cnc4cccnc4c3)nc(N3CC(Cc4cncnc4)C3)c2c1Cl [700,867] |  |  | <=0.5 | 1
CCc1[nH]c2nc(Sc3cnc4nccnc4c3)nc(NCCCn3ccnc3)c2c1Cl [700,455] | 2 (≈ 4.29 µM) | 2 (≈ 4.29 µM) |  | 
CCc1[nH]c2nc(Cc3cccnc3)nc(N3CCC(N4CCOCC4)C3)c2c1Cl (stereo not drawn) [700,587] | 64 (≈ 150 µM) | > 64 |  | 
CCc1[nH]c2nc(Sc3nc(C(=O)NOC)cs3)nc(N3CCN(C(C)=O)CC3)c2c1Cl.O=C(O)C(F)(F)F [700,364] | 32 | > 64 |  | 
CCc1[nH]c2nc(Sc3cnc4c(N)nc(N)nc4c3)nc(N(C)CCNC)c2c1Cl.O=C(O)C(F)(F)F.O=C(O)C(F)(F)F [700,472] | 64 | 64 |  | 
CCc1[nH]c2nc(Sc3cnc4nccnc4c3)nc(N3CCC[C@@H](N)C3)c2c1Cl [700,588] | 8 (≈ 18.1 µM) | 8 (≈ 18.1 µM) |  | 
CCCn1c(=O)cc(Sc2nc(N3CC(O)C3)c3c(Br)c(CC)[nH]c3n2)[nH]c1=O [700,414] | ≤ 0.5 | 1 (≈ 2.08 µM) |  | 
CCc1[nH]c2nc(Sc3cc(OC)nc(OC)n3)nc(N3CC(O)C3)c2c1Cl.Cl.Cl [700,411] | > 64 | > 64 |  | 
CCc1[nH]c2nc(Sc3ccc4c(N)nc(CN5CCC(N)CC5)nc4c3)nc(N3CC[C@@H](N)C3)c2c1Cl [700,846] |  |  | >64 | >64
CCc1[nH]c2nc(Oc3cncc(C#N)c3)nc(Oc3cccc(C#N)c3)c2c1Br.O=C(O)C(F)(F)F [700,793] |  |  | <=0.5 | <=0.5
CCOC(=O)Cc1nc(N2CCC(O)C2)c2c(Cl)c(CC)[nH]c2n1 (stereo not drawn) [700,544] | > 64 | > 64 |  | 
CCc1[nH]c2nc(Sc3cnc4nccnc4c3)nc(NCCNC)c2c1Cl.O=C(O)C(F)(F)F [700,512] | > 64 | > 64 |  | 
CCc1[nH]c2nc(Sc3ccc(C#N)c(F)c3)nc(N3CC[C@@H](N)C3)c2c1Cl.O=C(O)C(F)(F)F [700,666] | 2 | 4 |  | 
CCc1[nH]c2nc(Oc3cnc4ccoc4c3)nc(Oc3cnc4ccoc4c3)c2c1Cl.O=C(O)C(F)(F)F [700,650] | ≤ 0.5 | 1 |  | 
CCc1[nH]c2nc(Sc3ccc4c(N5CC(C6(N)CC6)C5)cc(C(=O)O)nc4c3)nc(N3CC[C@@H](N)C3)c2c1Cl [700,860] |  |  | >64 | >64
CCc1[nH]c2nc(Oc3cccnc3)nc(Oc3cccnc3)c2c1Br.O=C(O)C(F)(F)F [700,598] | 1 | 2 |  | 
CCc1[nH]c2nc(Sc3cnc4nccnc4c3)nc(N3CC(CNC(=O)CN4C(=O)CSC4=O)C3)c2c1Cl [700,519] | 1 (≈ 1.71 µM) | 1 (≈ 1.71 µM) |  | 
CCOc1nc(Nc2ccc(Cl)c3ncccc23)nc2[nH]c(CC)c(Br)c12.O=C(O)C(F)(F)F [700,483] | 32 | 32 |  | 
